pIC50: −log10 of the molar value. Read-outs that look alike come from different tables or passages of the source.
Columns and labels:
DU145 [1] = experiment: functional siRNA cell proliferation assay (CTG assay, microscopy); assay type: cell-based; conditions: DU-145 (Prostate); 4 txns; 7 days expt; n=6
Description: (§1) FIGS. 10 A-E illustrate graphs of the effects of siCD320 and siLRP2 on cell proliferation—Cell lines representative of several types of cancers (breast, prostate, skin) were transfected with individual or combinations of siRNAs targeting CD320 (OSC17, OSC47) or LRP2 (05L231, OSL245) as indicated. Cells were repeatedly transfected as outlined in Table 9 for efficient toxicity, then assayed for viability by the CTG assay. Doxorubicin-treated cells served as a positive control for cell toxicity in our assays (Table 8).
(§2) FIGS. 11A-B illustrate the effects of siCD320 and siLRP2 molar proportions on cell proliferation with different molar proportions of siRNA targeting CD320 and siRNA targeting LRP2. Cell lines representative of two types of cancers (breast, prostate) were transfected with different proportions of siRNAs targeting CD320 (OSC17) or LRP2 (05L245) (0-20 nM) or a negative control siRNA (OSS2) as indicated. Cells were repeatedly transfected for efficient toxicity then assayed for viability by the CTG assay. Doxorubicin-treated cells served as a positive control for cell toxicity in our assays (Table 8).
FIGS. 16 A-D illustrate plated cells showing the effects of siCD320 and siLRP2 on four cell lines. […] Cells were repeatedly transfected for efficient toxicity as in Table 9 and then analyzed by microscopy as indicated. […]

MDA-MB-231 = experiment: as above; assay type: cell-based; conditions: MDA-MB-231 (Breast); 4 txns; 11 days expt; n=6
Description: as §1
as §2, with “Cells were repeatedly transfected for efficient toxicity then assayed for viability by the CTG assay. Doxorubicin-treated cells served as a positive control for cell toxicity in our assays (Table 8).” left out
FIGS. 16 A-D illustrate plated cells showing the effects of siCD320 and siLRP2 on four cell lines. […] Cells were repeatedly transfected for efficient toxicity as in Table 9 and then analyzed by microscopy as indicated.
Now, referring to FIG. 10B, MDA-MB-231 triple negative breast cancer cells were plated in a 24-well plate at 20,000 cells/well. […] At day 11, cells were analyzed for cell growth by the CTG assay. […]

A172 [2] = experiment: functional siRNA cell proliferation screening (CTG assay); assay type: cell-based; conditions: A172 (Glioblastoma); 5 txns; 7 days expt; n=3
Procedure: as §1, with “9” for “10”, “percent cell survival” for “effects”, “(lung, brain) or normal fibroblasts” for “(breast, prostate, skin)”, “OSL245), individually at 20 nM or in combination (10 nM each), or a negative control siRNA (OSS2) (20 nM)” for “OSL245)”
as §1
(§3) Referring now to FIG. 16, treatment of breast, prostate, and skin cancer cells with an inhibitor of CD320 receptor or an inhibitor of LRP2 receptor or a combination of both in an amount effective to inhibit proliferation of the cancer cells as compared to the control cells treated with control siRNA is illustrated. MDA-MB-231, DU145, LnCAP, and MDA-MB-435S cells were plated at 20,000 cells per well in a 24-well plate. The next day, the cells were transected with 20 nM of indicated siRNAs to knock down CD320, LRP2, or scrambled control. For the combination of siRNAs, cells were treated with 10 nM of each siRNA for 20 nM total treatments. The indicated pictures of the cells were taken at the end of the experiment.

H157 = experiment: as above; assay type: cell-based; conditions: H157 (Lung); 5 txns; 8 days expt; n=3
Procedure: as §1, with “9” for “10”, “percent cell survival” for “effects”, “(lung, brain) or normal fibroblasts” for “(breast, prostate, skin)”, “OSL245), individually at 20 nM or in combination (10 nM each), or a negative control siRNA (OSS2) (20 nM)” for “OSL245)”
as §1, §3

HCC15 [3] = experiment: as above; assay type: cell-based; conditions: HCC15 (Lung); 2 txns; 7 days expt; n=3
Procedure: as §1, with “9” for “10”, “percent cell survival” for “effects”, “(lung, brain) or normal fibroblasts” for “(breast, prostate, skin)”, “OSL245), individually at 20 nM or in combination (10 nM each), or a negative control siRNA (OSS2) (20 nM)” for “OSL245)”
as §1, §3

U251 [4] = experiment: as above; assay type: cell-based; conditions: U251 (Glioblastoma); 6 txns; 8 days expt; n=4
Procedure: as §1, with “9” for “10”, “percent cell survival” for “effects”, “(lung, brain) or normal fibroblasts” for “(breast, prostate, skin)”, “OSL245), individually at 20 nM or in combination (10 nM each), or a negative control siRNA (OSS2) (20 nM)” for “OSL245)”
as §1, §3

MCF-7 = experiment: as above; assay type: cell-based; conditions: MCF-7 (Breast); 2 txns; 7 days expt; n=3
Procedure: as §1, with “9” for “10”, “percent cell survival” for “effects”, “(lung, brain) or normal fibroblasts” for “(breast, prostate, skin)”, “OSL245), individually at 20 nM or in combination (10 nM each), or a negative control siRNA (OSS2) (20 nM)” for “OSL245)”
as §1, §3

GM05659 [5] = experiment: as above; assay type: cell-based; conditions: GM05659 (Normal); 4 txns; 7 days expt; n=3
Procedure: as §1, with “9” for “10”, “percent cell survival” for “effects”, “(lung, brain) or normal fibroblasts” for “(breast, prostate, skin)”, “OSL245), individually at 20 nM or in combination (10 nM each), or a negative control siRNA (OSS2) (20 nM)” for “OSL245)”
as §1, §3

MDA-MB-435S [6] = experiment: functional siRNA cell proliferation assay (CTG assay, microscopy); assay type: cell-based, human; conditions: MDA-MB-435S (Melanoma); 5 txns; 10 days expt; n=4
Description: as §1
(§4) FIGS. 16 A-D illustrate plated cells showing the effects of siCD320 and siLRP2 on four cell lines. Cell lines representative of four types of cancers (breast, two prostate, skin) were transfected with siRNAs targeting CD320 (OSC17) or LRP2 (05L245) individually at 20 nM or in combination (10 nM each) or a negative control siRNA (OSS2) (20 nM) as indicated. Cells were repeatedly transfected for efficient toxicity as in Table 9 and then analyzed by microscopy as indicated.
(§5) Referring now to FIG. 16, treatment of breast, prostate, and skin cancer cells with an inhibitor of CD320 receptor or an inhibitor of LRP2 receptor or a combination of both in an amount effective to inhibit proliferation of the cancer cells as compared to the control cells treated with control siRNA is illustrated. […]

LncAP = experiment: as above; assay type: cell-based; conditions: LnCAP (Prostate); 4 txns; 7 days expt; n=3
Description: as §1, §4, §5

A172 [7] = experiment: doxorubicin cell viability, CTG assay; assay type: cell-based; conditions: Homo sapiens, A 172, 96 h
Procedure: (§6) A172 and HCC15 cells were plated at 1200 cells/well in a 96 well plate. The next day, cells were treated with doxorubicin at the indicated concentrations. Four days after doxorubicin treatment was initiated, the cells were assayed for viability using the CTG assay. The dashed line indicates the non-linear fitting of the data to calculate an IC50 value.
(§7) A172 and HCC15 cells were plated at 1200 cells/well in a 96 well plate. The next day, cells were treated with doxorubicin at the indicated concentrations. Four days after the doxorubicin exposure was initiated, the cells were assayed for viability using the CTG assay. […] After incubating the cells with the CTG reagent, ATP levels can be indirectly measured as light production using the TECAN luminescence plate reader. As a first step, toxicity of a known chemotherapeutic drug, doxorubicin, was assayed on the cell lines of interest. Doxorubicin was used as a positive control for cell toxicity in our assay.
(§8) The cells lines were plated at 1,000 to 4,000 cells/well in a 96-well plate and treated with doxorubicin the following day. CTG activity was measured 4 days after treatment. IC50 values were calculated by GraphPad Prism Software.

HCC15 [8] = experiment: doxorubicin cell viability, CTG assay; assay type: cell-based; conditions: 96 h
Procedure: as §6, §7, §8

HEK293 = experiment: doxorubicin cell viability, CTG assay; assay type: cell-based; conditions: Homo sapiens, 96 h; HEK293, Other; CTG 4 days after treatment
Procedure: as §7, §8

PC3 = experiment: doxorubicin cell viability, CTG assay; assay type: cell-based; conditions: Homo sapiens, PC-3, 96 h; PC3, Prostate; CTG 4 days after treatment
Procedure: as §7, §8

NCI-H460 = experiment: doxorubicin cell viability, CTG assay; assay type: cell-based; conditions: Homo sapiens, 96 h; NCI-H460, Lung; CTG 4 days after treatment
Procedure: as §7, §8

U251 [9] = experiment: doxorubicin cell viability, CTG assay; assay type: cell-based; conditions: Homo sapiens, U-251, 96 h; U251, Glioblastoma; CTG 4 days after treatment
Procedure: as §7, §8

GM05659 [10] = experiment: doxorubicin cell viability, CTG assay; assay type: cell-based; conditions: 96 h; GM05659, Other; CTG 4 days after treatment
Procedure: as §7, §8

DU145 [11] = experiment: doxorubicin cell viability, CTG assay; assay type: cell-based; conditions: Homo sapiens, DU-145, 96 h; DU145, Prostate; CTG 4 days after treatment
Procedure: as §7, §8

MDA-MB-435S [12] = experiment: doxorubicin cell viability, CTG assay; assay type: cell-based; conditions: Homo sapiens, 96 h, Melanoma, CTG 4 days after treatment
Procedure: as §7, §8

For COc1cccc2c1C(=O)c1c(O)c3c(c(O)c1C2=O)C[C@@](O)(C(=O)CO)C[C@@H]3O[C@H]1C[C@H](N)[C@H](O)[C@H](C)O1 [DOX], the “percent survival compared to negative control OSS2” value (shortened to “percent survival”) (DU145 [1]) was 40%, the “percent survival” value (MDA-MB-231) was 7% and the “percent survival” value (A172 [2]) was 8%. For the same compound, the “percent survival” value (H157) was 20%, the “percent survival” value (HCC15 [3]) was 2% and the “percent survival” value (U251 [4]) was 51%. The “percent survival” value (MCF-7) was 5%, the “percent survival” value (GM05659 [5]) was 39% and the “percent survival” value (MDA-MB-435S [6]) was 51%. For the same compound, the “percent survival” value (LncAP) was 38%.

Compound COc1cccc2c1C(=O)c1c(O)c3c(c(O)c1C2=O)C[C@@](O)(C(=O)CO)C[C@@H]3O[C@H]1C[C@H](N)[C@H](O)[C@H](C)O1 [doxorubicin] has a pIC50 (A172 [7]; A172, Glioblastoma, CTG 4 days after treatment, read-out: IC50) of 6.88, a pIC50 (A172 [7]; A172 cells, CTG four days after exposure, read-out: IC50 of doxorubicin treatment) of 6.88 and a pIC50 (HCC15 [8]; HCC15, Lung, CTG 4 days after treatment, read-out: IC50) of 6.78. The pIC50 (HCC15 [8]; HCC15 cells, CTG four days after exposure, read-out: IC50 of doxorubicin treatment) was 6.78, the pIC50 (HEK293) was 7.54 and the pIC50 (PC3) was 6.41. It also gave a pIC50 (NCI-H460) of 7.25, a pIC50 (U251 [9]) of 7.62 and a pIC50 (GM05659 [10]) of 6.57. The pIC50 (DU145 [11]) was 6.61 and the pIC50 (MDA-MB-435S [12]) was 6.49.

Reference: US12305171B2, “Compositions and methods for treating cancer” (bioAffinity Technologies, Inc., priority 2018, dated 2025)
